Laboratory results published in patent US20260262643A1, “HERBICIDAL BENZOXAZINES” (FMC CORPORATION, priority 2022, published 2026).

Columns and labels:
[1] = tested on: foxtail, giant; experiment: Test A preemergence; type: in vivo, Setaria faberi; conditions: 1000 g ai/ha, 0 to 100 scale (0 no effect, 100 complete control), 10 days
Text: (§1) Seeds of plant species selected from barnyardgrass (Echinochloa crusgalli), blackgrass (Alopecurus myosuroides), corn (Zea mays), foxtail, giant (giant foxtail, Setaria faberi), goosegrass (Eleusine indica), kochia (Bassia scoparia), oat, wild (wild oat, Avena fatua), pigweed, palmer (palmer amaranth, palmer pigweed, Amaranthus palmeri), Pigweed, Redroot (redroot pigweed, Amaranthus retroflexus), ragweed (common ragweed, Ambrosia artemisiifolia), ryegrass, Italian (italian ryegrass, Lolium multiflorum), soybean (Glycine max), and wheat (Triticum aestivum) were planted into a blend of loam soil and sand and treated preemergence with a directed soil spray using test chemicals formulated in a non-phytotoxic solvent mixture which included a surfactant. At the same time, plants selected from these crops and weed species and also galium (catchweed bedstraw, Galium aparine) and horseweed (Erigeron canadensis) were planted in pots containing the same blend of loam soil and sand and treated with postemergence applications of test chemicals formulated in the same manner. Plants ranged in height from 2 to 10 cm and were in the one- to two-leaf stage for the postemergence treatment. Treated plants and untreated controls were maintained in a greenhouse for 10 days, after which time all treated plants were compared to untreated controls and visually evaluated for injury. Plant response ratings, summarized in Table A, are based on a 0 to 100 scale where 0 is no effect and 100 is complete control. A dash (-) response means no test result.

[2] = tested on: blackgrass; experiment: Test A preemergence; type: in vivo, Alopecurus myosuroides; conditions: 1000 g ai/ha, 0 to 100 scale (0 no effect, 100 complete control), 10 days
Text: as §1

[3] = tested on: kochia; experiment: Test A postemergence; type: in vivo, Bassia scoparia; conditions: 1000 g ai/ha, Postemergence; 0 to 100 scale
Text: as §1

[4] = tested on: ragweed; experiment: Test A postemergence; type: in vivo, Ambrosia artemisiifolia; conditions: 1000 g ai/ha, Postemergence; 0 to 100 scale
Text: as §1

[5] = tested on: goosegrass; experiment: Test A preemergence; type: in vivo, Eleusine indica; conditions: 1000 g ai/ha, 0 to 100 scale (0 no effect, 100 complete control), 10 days
Text: as §1

[6] = tested on: kochia; experiment: Test A preemergence; type: in vivo, Bassia scoparia; conditions: 1000 g ai/ha, 0 to 100 scale (0 no effect, 100 complete control), 10 days
Text: as §1

[7] = tested on: ragweed; experiment: Test A preemergence; type: in vivo, Ambrosia artemisiifolia; conditions: 1000 g ai/ha, 0 to 100 scale (0 no effect, 100 complete control), 10 days
Text: as §1

[8] = tested on: horseweed; experiment: Test A postemergence; type: in vivo, Erigeron canadensis; conditions: 1000 g ai/ha, Postemergence; 0 to 100 scale
Text: as §1

[9] = tested on: goosegrass; experiment: Test A postemergence; type: in vivo, Eleusine indica; conditions: 1000 g ai/ha, Postemergence; 0 to 100 scale
Text: as §1

[10] = tested on: foxtail, giant; experiment: Test A postemergence; type: in vivo, Setaria faberi; conditions: 1000 g ai/ha, Postemergence; 0 to 100 scale
Text: as §1

[11] = tested on: ryegrass, Italian; experiment: Test A preemergence; type: in vivo, Lolium multiflorum; conditions: 1000 g ai/ha, 0 to 100 scale (0 no effect, 100 complete control), 10 days
Text: as §1

[12] = tested on: blackgrass; experiment: Test A postemergence; type: in vivo, Alopecurus myosuroides; conditions: 1000 g ai/ha, Postemergence; 0 to 100 scale
Text: as §1

[13] = tested on: pigweed, palmer; experiment: Test A postemergence; type: in vivo, Amaranthus palmeri; conditions: 1000 g ai/ha, Postemergence; 0 to 100 scale
Text: as §1

[14] = tested on: galium; experiment: Test A postemergence; type: in vivo, Galium aparine; conditions: 1000 g ai/ha, Postemergence; 0 to 100 scale
Text: as §1

[15] = tested on: pigweed, palmer; experiment: Test A preemergence; type: in vivo, Amaranthus palmeri; conditions: 1000 g ai/ha, 0 to 100 scale (0 no effect, 100 complete control), 10 days
Text: as §1

[16] = tested on: ryegrass, Italian; experiment: Test A postemergence; type: in vivo, Lolium multiflorum; conditions: 1000 g ai/ha, Postemergence; 0 to 100 scale
Text: as §1

Compound	Plant response rating, Foxtail, Giant [1]	Plant response rating, Blackgrass [2]	Plant response rating, Kochia [3]	Plant response rating, Ragweed [4]	Plant response rating, Goosegrass [5]	Plant response rating, Kochia [6]	Plant response rating, Ragweed [7]	Plant response rating, Horseweed [8]	Plant response rating, Goosegrass [9]	Plant response rating, Foxtail, Giant [10]	Plant response rating, Ryegrass, Italian [11]	Plant response rating, Blackgrass [12]	Plant response rating, Pigweed, Palmer [13]	Plant response rating, Galium [14]	Plant response rating, Pigweed, Palmer [15]	Plant response rating, Ryegrass, Italian [16]
O=C(c1ccnc(-n2cncn2)c1)N1CC(CF)Oc2c(Cl)cccc21 (centres unmarked) [Compound 36]	100	70	60	60	90	20	30	0	30	90	50	60	60	90	40	40
Cc1nc(-c2cccc(C(=O)N3C[C@H](C)Oc4c(Cl)cccc43)c2)no1 [Compound 120]	20	10	50	0	10	0	0	0	10	20	10	0	40	40	0	0
